Assay results reported in US20240180956A1, “A VAGINAL CONTRACEPTIVE COMPOSITION FOR REINFORCEMENT OF THE CERVICAL MUCUS BARRIER PROPERTIES” (CIRQLE BIOMEDICAL CONTRACEPTION APS, priority 2021, published 2024).

System: human ovulatory cervical mucus
Assay: Sperm penetration through human cervical ovulatory mucus (capillary assay, phase contrast microscopy)
Assay type: cell-based
Conditions: PLL 5 mg/mL in 32.5 mM lactic acid; 30 minutes after exposure to undiluted sperm; vs lactic acid solution alone or untreated
Method: All chitosans were dissolved in a 100 mM or a 32.5 mM lactic acid solution at a concentration of 0.5% (w/v chitosan) and adjusted to pH 5.5 (pH±0.02) by the use of 0.1 or 1 M hydrochloric acid (HCl, Merck KgaA, Germany), and 0.1 or 1 M sodium hydroxide (NaOH, CPAchem Ltd., Bulgaria) or 50% NaOH (Sigma-Aldrich, USA).
Semen samples of patients and volunteers collected at the Andrology, Sexual Medicine, Transmedicine, clinic (ANOVA, Karolinska University Hospital, Sweden) were run through standard semen kinematic analyses and sperm penetration assays no later than 3 h after collection. Data were obtained for the collection time, abstinence time, and semen volume.
Semen was gently liquefied for 30 min on a rocker in an incubation chamber heated up to 37° C., after complete collection of ejaculates by masturbation. The viscosity of semen was determined visually and by pipetting. Semen was microscopically analysed by pipetting 6 μl of specimen in pre-warmed Leja® (Netherland) counting chamber slides (20 micron). Subsequently, specimens were assessed via clinical ECLIPSE 50i microscope (Nikon Instruments, Japan) equipped with stage heater MS 100 (37° C., Linkam Scientific Instruments, UK), 10× objective (Ph1) and 0.5× charge coupled device camera UI-1540LE-M-HQ (IDS Imaging Development Systems GmbH, Germany) with total magnification of 5×. […]

Substance: poly-L-lysine [PLL]
- sperm detected throughout the capillary filled with ovulatory cervical mucus: Less sperm was detected
